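Exposure lasted 48 hours, with cells grown in 96-well plates and compounds tested at five concentrations. Abbreviation: GI50, concentration required for 50% inhibition of growth. At the TGI there is no net growth.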
Legend:
Test in all cases: NCI tumour cell line growth inhibition, 48 h
SW-620 colon = system: SW-620 colon
HOP-92 NSCLC = system: HOP-92 NSCLC
KM12 colon = system: KM12 colon
SK-OV-3 ovarian = system: SK-OV-3 ovarian
HS 578T breast = system: HS 578T breast
NCI-H226 lung = system: NCI-H226 lung
DU-145 prostate = system: DU-145 prostate
SK-MEL-2 melanoma = system: SK-MEL-2 melanoma
OVCAR-5 ovarian = system: OVCAR-5 ovarian
OVCAR-4 ovarian = system: OVCAR-4 ovarian
OVCAR-8 ovarian = system: OVCAR-8 ovarian
SK-MEL-28 melanoma = system: SK-MEL-28 melanoma
SF-268 CNS = system: SF-268 CNS
OVCAR-3 ovarian = system: OVCAR-3 ovarian
LOX IMVI melanoma = system: LOX IMVI melanoma
HOP-62 NSCLC = system: HOP-62 NSCLC
SK-MEL-5 melanoma = system: SK-MEL-5 melanoma
CCRF-CEM leukemia = system: CCRF-CEM leukemia
PC-3 prostate = system: PC-3 prostate
UACC-257 melanoma = system: UACC-257 melanoma
M14 melanoma = system: M14 melanoma
IGROV1 ovarian = system: IGROV1 ovarian
MCF7 breast = system: MCF7 breast
COLO 205 colon = system: COLO 205 colon
NCI-H460 lung = system: NCI-H460 lung
SN12C renal = system: SN12C renal
ACHN renal = system: ACHN renal
BT-549 breast = system: BT-549 breast

In the case of `CCN(CCO)CC(C)Nc1ccc([N+](=O)[O-])c2sc3ccccc3c(=O)c12` (stereo not given), the GI50 (SW-620 colon) is reported as 1040 nM, the TGI (SW-620 colon) is reported as 3190 nM and the GI50 (HOP-92 NSCLC) is reported as 1600 nM. For the same molecule, the TGI (HOP-92 NSCLC) was 7700 nM, the GI50 (KM12 colon) was 1470 nM and the TGI (KM12 colon) was 4000 nM. The GI50 (SK-OV-3 ovarian) was 2530 nM, the TGI (SK-OV-3 ovarian) was 14000 nM and the GI50 (HS 578T breast) was 1750 nM. It also gave a TGI (HS 578T breast) of 10500 nM, a GI50 (NCI-H226 lung) of 1370 nM and a TGI (NCI-H226 lung) of 7150 nM. For the same molecule, the GI50 (DU-145 prostate) was 1240 nM, the TGI (DU-145 prostate) was 4900 nM and the GI50 (SK-MEL-2 melanoma) was 1230 nM. It also gave a TGI (SK-MEL-2 melanoma) of 3640 nM, a GI50 (OVCAR-5 ovarian) of 3680 nM and a TGI (OVCAR-5 ovarian) of 18500 nM. The GI50 (OVCAR-4 ovarian) was 3320 nM, the TGI (OVCAR-4 ovarian) was 15700 nM and the GI50 (OVCAR-8 ovarian) was 1180 nM. For the same molecule, the TGI (OVCAR-8 ovarian) was 4190 nM, the GI50 (SK-MEL-28 melanoma) was 2680 nM and the TGI (SK-MEL-28 melanoma) was 10300 nM. It also gave a GI50 (SF-268 CNS) of 1980 nM, a TGI (SF-268 CNS) of 11500 nM and a GI50 (OVCAR-3 ovarian) of 2960 nM. The TGI (OVCAR-3 ovarian) was 12300 nM, the GI50 (LOX IMVI melanoma) was 746 nM and the TGI (LOX IMVI melanoma) was 2690 nM. The GI50 (HOP-62 NSCLC) was 1270 nM, the TGI (HOP-62 NSCLC) was 5550 nM and the GI50 (SK-MEL-5 melanoma) was 1520 nM. The TGI (SK-MEL-5 melanoma) was 5560 nM, the GI50 (CCRF-CEM leukemia) was 1000 nM and the TGI (CCRF-CEM leukemia) was 7190 nM. It also gave a GI50 (PC-3 prostate) of 1330 nM, a TGI (PC-3 prostate) of 4550 nM and a GI50 (UACC-257 melanoma) of 1470 nM. For the same molecule, the TGI (UACC-257 melanoma) was 2850 nM, the GI50 (M14 melanoma) was 1540 nM and the TGI (M14 melanoma) was 3450 nM. For the same molecule, the GI50 (IGROV1 ovarian) was 340 nM, the TGI (IGROV1 ovarian) was 1600 nM and the GI50 (MCF7 breast) was 436 nM. The TGI (MCF7 breast) was 4150 nM, the GI50 (COLO 205 colon) was 1620 nM and the TGI (COLO 205 colon) was 5960 nM. For the same molecule, the GI50 (NCI-H460 lung) was 379 nM, the TGI (NCI-H460 lung) was 2270 nM and the GI50 (SN12C renal) was 2150 nM. The TGI (SN12C renal) was 18400 nM, the GI50 (ACHN renal) was 1010 nM and the TGI (ACHN renal) was 12100 nM. The GI50 (BT-549 breast) was 2100 nM.
